The values that follow are results of earlier work, collected in publication PMC2936243 (Journal of neurochemistry, 2010).

What all share (conditions): cited from earlier work
Series [1] relates to nAChR subtypes that contain the α1 and α9 subunits.
For series [2], the system named is GABAARs that contain the β3 subunit.
For series [3], the system named is unknown site in brain tissue from α7 knockout mice.
Series [4] relates to α3* and α6* containing nAChR subtypes.

Marks after values point to notes of the source that are not given here.

Turning to α-bungarotoxin [α-BgTx], the “binding to α1 and α9 containing nAChRs” value in series [1] is “also binds to non-α7 nAChR subtypes including those that contain the α1 and α9 subunits”. The “binding to GABAARs” value in series [2] was “binds to a subset of GABAARs that contain the β3 subunit”. Besides, in series [3], the “residual binding in α7 knockout brain tissue” value is given as “significant residual α-BgTx binding to an unknown site”.

“monoiodinated α-conotoxin MII [[^125I]-α-CTx MII]”: the “binding selectivity” value in series [4] was “selectively binds to α3* and α6* containing nAChR subtypes”.
